Data taken from ChEMBL document CHEMBL4616717, “Discovery of GNE-149 as a Full Antagonist and Efficient Degrader of Estrogen Receptor alpha for ER+ Breast Cancer” (ACS Med Chem Lett, 2020).
Activity calls are given as the source filed them. No cut-off for these calls is given here.

Tests used:
[1] = molecular target: T1, Estrogen receptor (Homo sapiens, UniProt P03372); assay: Induction of ERalpha degradation in human MCF7 cells after 4 hrs by FITC/Hoechst staining based immunofluorescence imaging analysis; format: cell-based
T1 sequence (P03372 whole entry): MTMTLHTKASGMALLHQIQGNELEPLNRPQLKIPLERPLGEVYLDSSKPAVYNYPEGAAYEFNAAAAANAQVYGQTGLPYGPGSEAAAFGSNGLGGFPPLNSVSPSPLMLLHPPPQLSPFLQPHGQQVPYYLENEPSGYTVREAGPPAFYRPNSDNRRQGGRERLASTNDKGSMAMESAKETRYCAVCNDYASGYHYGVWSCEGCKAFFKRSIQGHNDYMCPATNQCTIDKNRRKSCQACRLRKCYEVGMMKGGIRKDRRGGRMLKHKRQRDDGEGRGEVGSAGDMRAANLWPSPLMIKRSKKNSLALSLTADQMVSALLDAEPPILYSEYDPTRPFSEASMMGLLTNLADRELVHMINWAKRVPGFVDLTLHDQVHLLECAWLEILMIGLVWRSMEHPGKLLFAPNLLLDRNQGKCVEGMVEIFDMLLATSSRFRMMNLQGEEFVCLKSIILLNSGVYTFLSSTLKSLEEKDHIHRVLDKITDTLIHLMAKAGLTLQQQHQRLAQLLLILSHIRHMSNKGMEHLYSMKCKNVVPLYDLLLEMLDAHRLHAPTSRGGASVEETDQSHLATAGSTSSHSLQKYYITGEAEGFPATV

[2] = test system: MCF7; assay: Antiproliferative activity against human MCF7 cells assessed as reduction in cell viability after 72 hrs by Celltiter-Glo assay; format: functional, cell-based; details: MCF7, 72 h
[3] = test system: T47D; assay: Antiproliferative activity against human T47D cells assessed as reduction in cell viability; format: functional, cell-based
[4] = Clearance in rat; format: ADME; details: in vivo
[5] = Clearance in dog; format: ADME, Canis lupus familiaris; details: in vivo
[6] = Oral bioavailability in dog; details: in vivo
[7] = Clearance in cynomolgus monkey; format: ADME, Macaca fascicularis; details: in vivo
[8] = Oral bioavailability in cynomolgus monkey; details: in vivo
[9] = molecular target: T1, Estrogen receptor; assay: Agonist activity at ERalpha in human Ishikawa cells after 72 hrs by alkaline phosphatase assay; format: cell-based
[10] = Oral bioavailability in rat; details: in vivo
[11] = molecular target: T2, Estrogen receptor (Rattus norvegicus) (UniProt P06211); assay: In vivo antagonist activity at ERalpha in CRL:CD(SD) rat assessed as inhibition of estradiol-induced increase in uterine wet weight at 10 mg/kg, po administered as MCT suspension for 3 days and measured at 4 hrs post last dose on day 4; format: functional, organism-based
T2 sequence (whole entry): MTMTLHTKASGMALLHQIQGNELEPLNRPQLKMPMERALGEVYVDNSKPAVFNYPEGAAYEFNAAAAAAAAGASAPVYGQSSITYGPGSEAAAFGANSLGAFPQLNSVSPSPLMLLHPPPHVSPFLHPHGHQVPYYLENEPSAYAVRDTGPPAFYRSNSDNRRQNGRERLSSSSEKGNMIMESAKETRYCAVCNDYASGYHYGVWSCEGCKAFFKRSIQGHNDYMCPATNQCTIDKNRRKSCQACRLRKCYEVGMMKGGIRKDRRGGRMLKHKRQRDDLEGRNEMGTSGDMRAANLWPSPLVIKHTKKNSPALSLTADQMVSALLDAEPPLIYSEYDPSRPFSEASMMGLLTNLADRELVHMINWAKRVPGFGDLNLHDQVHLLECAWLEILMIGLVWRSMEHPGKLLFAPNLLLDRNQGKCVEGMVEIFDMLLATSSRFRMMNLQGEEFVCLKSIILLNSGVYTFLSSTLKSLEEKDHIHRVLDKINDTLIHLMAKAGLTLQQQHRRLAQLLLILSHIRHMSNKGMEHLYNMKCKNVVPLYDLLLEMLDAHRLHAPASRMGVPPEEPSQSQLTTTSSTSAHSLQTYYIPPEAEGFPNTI

[12] = test system: MCF7; assay: Antitumor activity against human MCF7 cells expressing wild-type ER xenografted in po dosed CRL:NU-Foxn1 mouse administered qd for 28 days in presence of 17-beta-estradiol pellets and measured twice per week by caliper method; format: functional, organism-based
[13] = test system: MCF7; assay: Antitumor activity against human MCF7 cells harboring ER Y537S mutant xenografted in po dosed CRL:NU-Foxn1 mouse assessed as tumor regression administered qd for 21 days in presence of 17-beta estradiol pellets and measured twice per week by caliper method; format: functional, organism-based
[14] = test system: MCF7; assay: Antitumor activity against human MCF7 cells harboring ER Y537S mutant xenografted in CRL:NU-Foxn1 mouse assessed as tumor regression at 1 to 30 mg/kg, po qd for 21 days in presence of 17-beta estradiol pellets and measured twice per week by caliper method; format: functional, organism-based

| Structure (SMILES) | IC50 [1] | IC50 [2] | also measured |
| --- | --- | --- | --- |
| C[C@@H]1Cc2c([nH]c3ccccc23)[C@@H](c2c(F)cc(OCCN3CC(F)(CF)C3)cc2F)N1CC(C)(C)F | 0.38 nM | 2.7 nM |  |
| CC1CN(CCOc2cc(F)c([C@@H]3c4[nH]c5ccccc5c4C[C@@H](C)N3CC(C)(C)F)c(F)c2)C1 | 0.19 nM | 0.9 nM |  |
| CC1=C(c2cccc(O)c2)[C@H](c2ccc(OCCN3CC(CF)C3)cc2)Oc2ccc(O)cc21 |  | 0.3 nM | IC50 [3]: 0.29 nM; clearance [4]: 81 mL/min/kg; clearance [5]: 24 mL/min/kg; bioavailability [6]: 23%; clearance [7]: 17 mL/min/kg; bioavailability [8]: 5%; Activity [9]: Not Active |
| C[C@@H]1Cc2c([nH]c3ccccc23)[C@@H](c2c(F)cc(OC3CN(C[C@H]4C[C@H]4F)C3)cc2F)N1CC(C)(C)F | 0.56 nM | 1.8 nM |  |
| C[C@]12CC[C@@H]3c4ccc(O)cc4C[C@@H](CCCCCCCCC[S+]([O-])CCCC(F)(F)C(F)(F)F)[C@H]3[C@@H]1CC[C@@H]2O (stereo not given in full) [FULVESTRANT] |  | 2.6 nM | IC50 [3]: 3 nM; Activity [9]: Not Active |
| C[C@@H]1Cc2c([nH]c3ccccc23)[C@@H](c2c(F)cc(OCCN3CC[C@@H](CF)C3)cc2F)N1CC(C)(C)F |  | 1.5 nM |  |
| C[C@@H]1Cc2c([nH]c3ccccc23)[C@@H](c2c(F)cc(OC[C@H](C)N3CC[C@@H](CF)C3)cc2F)N1CC(C)(C)F |  | 1.7 nM |  |
| C[C@@H]1Cc2c([nH]c3ccccc23)[C@@H](c2c(F)cc(OC3CN(CCCF)C3)cc2F)N1CC(C)(C)F |  | 0.66 nM | IC50 [3]: 0.69 nM; clearance [4]: 19 mL/min/kg; bioavailability [10]: 31%; clearance [5]: 8 mL/min/kg; bioavailability [6]: 49%; clearance [7]: 13 mL/min/kg; bioavailability [8]: 28%; Activity [9]: Not Active; inhibition [11]: Active; Activity [12]: Dose-dependent effect; Activity [13]: Dose-dependent effect; Activity [14]: Active |
| C[C@@H]1Cc2c([nH]c3ccccc23)[C@@H](c2c(F)cc(OC3CN(CCCCF)C3)cc2F)N1CC(C)(C)F | 0.39 nM | 8.5 nM |  |
| C[C@@H]1Cc2c([nH]c3ccccc23)[C@@H](c2c(F)cc(OC3CN(CCF)C3)cc2F)N1CC(C)(C)F | 0.18 nM | 1.3 nM |  |
| C#CCN1CC(Oc2cc(F)c([C@@H]3c4[nH]c5ccccc5c4C[C@@H](C)N3CC(C)(C)F)c(F)c2)C1 | 0.083 nM | 0.82 nM |  |
| C[C@@H]1Cc2c([nH]c3ccccc23)[C@@H](c2c(F)cc(OCCN3CC(CF)C3)cc2F)N1CC(C)(C)F |  | 1.6 nM |  |
| C[C@@H]1Cc2c([nH]c3ccccc23)[C@@H](c2c(F)cc(OC3CN(CCCCl)C3)cc2F)N1CC(C)(C)F |  | 3 nM |  |
| C[C@@H]1Cc2c([nH]c3ccccc23)[C@@H](c2c(F)cc(OC3CN(C[C@H]4C[C@@H]4F)C3)cc2F)N1CC(C)(C)F | 0.55 nM | 6.4 nM |  |
| CC/C(=C(/c1ccc(/C=C/C(=O)O)cc1)c1ccc2[nH]ncc2c1)c1ccc(F)cc1Cl [BRILANESTRANT] |  | 44 nM | IC50 [3]: 27 nM |
| C[C@@H]1Cc2c([nH]c3ccccc23)[C@@H](c2c(F)cc(OC3CN(CC4(CF)CC4)C3)cc2F)N1CC(C)(C)F | 0.52 nM | 5.6 nM |  |
| C=CCN1CC(Oc2cc(F)c([C@@H]3c4[nH]c5ccccc5c4C[C@@H](C)N3CC(C)(C)F)c(F)c2)C1 | 0.15 nM | 0.84 nM |  |
| C[C@@H]1Cc2c([nH]c3ccccc23)[C@@H](c2c(F)cc(OCCN3CC(C(F)F)C3)cc2F)N1CC(C)(C)F |  | 2.3 nM |  |
| CCCN1CC(Oc2cc(F)c([C@@H]3c4[nH]c5ccccc5c4C[C@@H](C)N3CC(C)(C)F)c(F)c2)C1 |  | 1.5 nM |  |
